Reference: the supplement of paper PMC10307832

Legend:
Experiment in all cases: relative viability (nuclei count vs DMSO), 5 days (fraction); higher = more cells survive
[1] = compound: C1=CC=C2C(=C1)N=C(S2)C(C#N)C3=NC(=NC=C3)NCCC4=CN=CC=C4 + O=C(CCCCCCC(=O)Nc1ccccc1)NO [Vorinostat] (partner 1 µM)
Procedure, shortened: (§1)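 Medians of duplicate plates are given as relative viability. That measure is the nuclei count in treated wells divided by the count in vehicle wells. Counts were taken on 4× images of lung cancer cell lines in 1536-well plates, 5 days after pin-tool dosing the day after seeding with one drug alone or a fixed anchor-drug dose plus five library-drug doses (not always all listed) in √10 steps.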

NVP-TAE684 + Dasatinib = compound: COc1cc(N2CCC(N3CCN(C)CC3)CC2)ccc1Nc1ncc(Cl)c(Nc2ccccc2S(=O)(=O)C(C)C)n1 [NVP-TAE684] + Cc1nc(Nc2ncc(C(=O)Nc3c(C)cccc3Cl)s2)cc(N2CCN(CCO)CC2)n1 [Dasatinib] (partner 0.075 µM)
Procedure, shortened: as §1

CUDC-101 + Olaparib = compound: C#Cc1cccc(Nc2ncnc3cc(OC)c(OCCCCCCC(=O)NO)cc23)c1 [CUDC-101] + O=C(c1cc(Cc2n[nH]c(=O)c3ccccc23)ccc1F)N1CCN(C(=O)C2CC2)CC1 [Olaparib] (partner 8 µM)
Procedure, shortened: as §1

CUDC-101 + Pictilisib = compound: C#Cc1cccc(Nc2ncnc3cc(OC)c(OCCCCCCC(=O)NO)cc23)c1 [CUDC-101] + CS(=O)(=O)N1CCN(Cc2cc3nc(-c4cccc5[nH]ncc45)nc(N4CCOCC4)c3s2)CC1 [Pictilisib] (partner 1 µM)
Procedure, shortened: as §1

| Cell Line | relative viability ([1]; first compound 0.005 µM) | relative viability ([1]; first compound 0.01581 µM) | relative viability ([1]; first compound 0.05 µM) | relative viability ([1]; first compound 0.1581 µM) | relative viability ([1]; first compound 0.5 µM) | relative viability (NVP-TAE684 + Dasatinib; first compound 0.2 µM) | relative viability (NVP-TAE684 + Dasatinib; first compound 0.6325 µM) | relative viability (NVP-TAE684 + Dasatinib; first compound 2 µM) | relative viability (CUDC-101 + Olaparib; first compound 0.01 µM) | relative viability (CUDC-101 + Olaparib; first compound 0.03162 µM) | relative viability (CUDC-101 + Olaparib; first compound 0.1 µM) | relative viability (CUDC-101 + Olaparib; first compound 0.3162 µM) | relative viability (CUDC-101 + Olaparib; first compound 1 µM) | relative viability (CUDC-101 + Pictilisib; first compound 0.01 µM) | relative viability (CUDC-101 + Pictilisib; first compound 0.03162 µM) | relative viability (CUDC-101 + Pictilisib; first compound 0.1 µM) | relative viability (CUDC-101 + Pictilisib; first compound 0.3162 µM) | relative viability (CUDC-101 + Pictilisib; first compound 1 µM) |
| --- | --- | --- | --- | --- | --- | --- | --- | --- | --- | --- | --- | --- | --- | --- | --- | --- | --- | --- |
| NCI-H1975 | 0.712 | 0.743 | 0.747 | 0.834 | 0.571 | 0.361 | 0.225 | 0.186 | 0.853 | 0.737 | 0.818 | 0.859 | 0.745 | 0.336 | 0.323 | 0.265 | 0.24 | 0.192 |
| NCI-H1993 | 0.66 | 0.717 | 0.638 | 0.837 | 0.501 | 0.499 | 0.548 | 0.581 | 1.04 | 0.963 | 1.02 | 1.1 | 0.667 | 0.845 | 0.824 | 0.918 | 0.763 | 0.869 |
| NCI-H2023 | 0.566 | 1.09 | 0.454 | 0.763 | 0.607 | 0.393 | 0.254 | 0.114 | 0.499 | 0.448 | 0.453 | 0.486 | 0.387 | 0.245 | 0.223 | 0.257 | 0.226 | 0.151 |
| 201T | 0.819 | 0.918 | 0.949 | 0.997 | 0.959 | 0.703 | 0.46 | 0.314 | 0.867 | 0.817 | 0.806 | 0.8 | 0.793 | 0.702 | 0.653 | 0.636 | 0.626 | 0.59 |
| LK-2 | 0.294 | 0.278 | 0.369 | 0.333 | 0.355 | 0.236 | 0.243 | 0.185 | 0.821 | 0.754 | 0.597 | 0.495 | 0.281 | 0.593 | 0.481 | 0.497 | 0.59 | 0.312 |
| SW 1573 | 0.577 | 0.82 | 0.43 | 0.846 | 0.618 | 0.236 | 0.227 | 0.0788 | 0.634 | 0.477 | 0.587 | 0.603 | 0.349 | 0.582 | 0.507 | 0.587 | 0.532 | 0.313 |
| NCI-H647 | 0.427 | 0.553 | 0.411 | 0.661 | 0.605 | 0.0949 | 0.103 | 0.0648 | 0.547 | 0.522 | 0.67 | 0.554 | 0.342 | 0.446 | 0.512 | 0.576 | 0.491 | 0.361 |
| HCC-78 | 0.485 | 0.391 | 0.509 | 0.524 | 0.42 | 0.298 | 0.24 | 0.306 | 1.01 | 0.688 | 0.821 | 0.584 | 0.341 | 0.246 | 0.205 | 0.209 | 0.153 | 0.145 |
